Key:
[1] = target: T1, human Bub1 (Homo sapiens, UniProt O43683); assay: Bub1 kinase assay (TR-FRET); type: biochemical; conditions: 10 μM ATP
T1 construct: catalytic domain of human Bub1 (amino acids 704-1085); His6 (N); made in house; host or cells: insect cells (Hi5)
From the text: Bub1-inhibitory activity of compounds of the present invention was quantified employing the Bub1 TR-FRET assay as described in the following paragraphs.
N-terminally His6-tagged recombinant catalytic domain of human Bub1 (amino acids 704-1085), expressed in insect cells (Hi5) and purified by Ni-NTA affinity chromatography and subsequent size exclusion chromatography, was used as enzyme. As substrate for the kinase reaction the biotinylated peptide biotin-Ahx-VLLPKKSFAEPG (C-terminus in amid form) was used which can be purchased e.g. form the company Biosyntan (Berlin, Germany).
For the assay 50 nl of a 100 fold concentrated solution of the test compound in DMSO was pipetted into a black low volume 384 well microtiter plate (Greiner Bio-One, Frickenhausen, Germany), 2 μl of a solution of Bub1 in aqueous assay buffer [50 mM Tris/HCl pH 7.5, 10 mM magnesium chloride (MgCl2), 200 mM potassium chloride (KCl), 1.0 mM dithiothreitol (DTT), 0.1 mM sodium ortho-vanadate, 1% (v/v) glycerol, 0.01% (w/v) bovine serum albumine (BSA), 0.005% (v/v) Trition X-100 (Sigma), 1× Complete EDTA-free protease inhibitor mixture (Roche)] were added and the mixture was incubated for 15 min at 22° C. to allow pre-binding of the test compounds to the enzyme before the start of the kinase reaction. Then the kinase reaction was started by the addition of 3 μl of a solution of adenosine-tri-phosphate (ATP, 16.7 μM=>final conc. in the 5 μl assay volume is 10 μM) and substrate (1.67 μM=>final conc. in the 5 μl assay volume is 1 μM) in assay buffer and the resulting mixture was incubated for a reaction time of 60 min at 22° C. The concentration of Bub1 was adjusted depending of the activity of the enzyme lot and was chosen appropriate to have the assay in the linear range, typical concentrations were in the range of 200 ng/ml. The reaction was stopped by the addition of 5 μl of a solution of TR-FRET detection reagents (0.2 μM streptavidine-XL665 [Cisbio Bioassays, Codolet, France] and 1 nM anti-phosho-Serine antibody [Merck Millipore, cat. #35-001] and 0.4 nM LANCE EU-W1024 labeled anti-mouse IgG antibody [Perkin-Elmer, product no. AD0077, as an alternative a Terbium-cryptate-labeled anti-mouse IgG antibody from Cisbio Bioassays can be used]) in an aqueous EDTA-solution (50 mM EDTA, 0.2% (w/v) bovine serum albumin in 100 mM HEPES pH 7.5).
The resulting mixture was incubated 1 h at 22° C. to allow the formation of complex between the phosphorylated biotinylated peptide and the detection reagents. Subsequently the amount of phosphorylated substrate was evaluated by measurement of the resonance energy transfer from the Eu-chelate to the streptavidine-XL. Therefore, the fluorescence emissions at 620 nm and 665 nm after excitation at 350 nm was measured in a TR-FRET reader, e.g. a Rubystar or Pherastar (both from BMG Labtechnologies, Offenburg, Germany) or a Viewlux (Perkin-Elmer). The ratio of the emissions at 665 nm and at […] was taken as the measure for the amount of phosphorylated substrate. The data were normalised (enzyme reaction without inhibitor=0% inhibition, all other assay components but no enzyme=100% inhibition).

[2] = tested on: spindle assembly checkpoint (phosphorylated histone H3 on serine 10) in HeLa cells; assay: SAC-Formation - Paclitaxel-Induced Assay; type: cell-based; conditions: Homo sapiens, paclitaxel 0.05 μM, 24 h incubation
From the text: The spindle assembly checkpoint assures the proper segregation of chromosomes during mitosis. Upon entry into mitosis, chromosomes begin to condensate which is accompanied by the phosphorylation of histone H3 on serine 10. Dephosphorylation of histone H3 on serine 10 begins in anaphase and ends at early telophase. Accordingly, phosphorylation of histone H3 on serine 10 can be utilized as a marker of cells in mitosis. Nocodazole is a microtubule destabilizing substance. Paclitaxel is a microtubule stabilizing compound. Thus, nocodazole as well as paclitaxel interfere with microtubule dynamics and mobilize the spindle assembly checkpoint. […] The mitotic breakthrough can be detected by the decrease of cells with phosphorylation of histone H3 on serine 10. This decline is used as a marker to determine the capability of compounds of the present invention to induce a mitotic breakthrough. The typical morphological alteration of nuclei with a prematurely completed mitosis after SAC-inhibition can be monitored via image analysis routines supporting those findings.
The nocodazole and paclitaxel variations were used to focus on compounds that are capable of inhibiting a SAC induced by both microtubule destabilization as well as microtubule stabilization. […]
Cultivated cells of the human cervical tumor cell line HeLa (ATCC CCL-2) were plated at a density of 1000 cells/well in a 1536-well microtiter plate in 2 μl PAA Ham's F12 Medium supplemented with 1% (v/v) glutamine, 1% (v/v) penicillin, 1% (v/v) streptomycin and 10% (v/v) fetal calf serum. […] Images were acquired with a PERKIN ELMER OPERA™ High-Content Analysis reader. Images were analyzed with image analysis software MetaXpress™ from Molecular devices utilizing the Mitotic Index application module. In this assay both labels HOECHST 33342 and phosphorylated Histone H3 on serine 10 were measured. […] The raw assay data were further analyzed by four-parametric hill equation using Genedata's Assay Analyzer and Condoseo software.

T1 sequence (O43683 704-1085): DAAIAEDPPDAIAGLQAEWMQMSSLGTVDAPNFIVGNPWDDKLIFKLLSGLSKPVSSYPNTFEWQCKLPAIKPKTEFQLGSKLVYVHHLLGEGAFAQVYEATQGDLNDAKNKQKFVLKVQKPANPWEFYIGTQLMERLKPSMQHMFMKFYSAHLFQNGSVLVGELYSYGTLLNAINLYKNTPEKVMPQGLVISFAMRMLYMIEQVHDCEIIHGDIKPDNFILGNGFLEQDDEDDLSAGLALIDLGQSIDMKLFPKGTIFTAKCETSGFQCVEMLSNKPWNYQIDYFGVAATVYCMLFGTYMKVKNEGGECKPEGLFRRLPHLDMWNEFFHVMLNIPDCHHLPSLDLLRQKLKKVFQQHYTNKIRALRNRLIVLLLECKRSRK

IC50 [1] [nM]	IC50 [2] [nM]	SMILES
> 20000	760	Cc1noc(Nc2cnc(C(F)(F)F)cn2)c1C(=O)Nc1ccc(OC2CCN(CCC(F)(F)F)CC2)nc1 [Example 1a, 3-Methyl-5-{[5-(trifluoromethyl)pyrazin-2-yl]amino}-N-(6-{[1-(3,3,3-trifluoropropyl)-piperidin-4-yl]oxy}pyridin-3-yl)-1,2-oxazole-4-carboxamide]
> 20000	630	Cc1noc(Nc2cnc(C(=O)NC3CCN(CC(F)F)CC3)cn2)c1C(=O)Nc1ccc(F)c(F)c1 [Example 1b, N-[1-(2,2-Difluoroethyl)piperidin-4-yl]-5-({4-[(3,4-difluorophenyl)carbamoyl]-3-methyl-1,2-oxazol-5-yl}amino)pyrazine-2-carboxamide]
> 20000	180	Cc1noc(Nc2cnc(C(F)(F)F)cn2)c1C(=O)Nc1ccc(F)c(F)c1 [Example 1c, N-(3,4-Difluorophenyl)-3-methyl-5-{[5-(trifluoromethyl)pyrazin-2-yl]amino}-1,2-oxazole-4-carboxamide]
